Measurements as given in patent US8148380B2, “Antibacterial amide and sulfonamide substituted heterocyclic urea compounds” (priority 2007, dated 2012).
In brackets after ≈: the same amount, converted by molar mass.

How the values were obtained:
Assay type in all cases: cell-based
[1] = MIC90 against resistant Gram-positive bacteria
Procedure: (§1) Compounds of the present invention were tested for antibacterial activity against a variety of pathogenic organisms including S. aureus, S. pneumoniae, S. pyogenes, E. faecalis, H. influenza and M. catarrhalis using a standard broth microdilution method to determine their minimum inhibitory concentrations (MICs). All compounds were tested using standard methods in accordance with CLSI guidelines (Clinical and Laboratory Standards Institute). Compounds described in Examples 1, 3-6, 8, 10-17, 19-21, 24-31, 33, 36, 38, 40, 54, 56-57, 59-71, 74-105, 107-108, 110-112, 114, 117-120, 122-142, 144-159, 162-179, 181-182, 184-225, 227-242, 244-319, 321-355, and 357-475 had MIC's of <0.12-4.0 μg/mL against some strains of the major Gram-positive organisms S. aureus, S. pneumoniae, S. pyogenes, and E. faecalis. […] Compounds described in Examples 11, 54, 60, and 208 shown to be bactericidal in S. aureus, E. faecalis, E. faecium, S. pyogenes, S. epidermidis and S. pneumoniae.

[2] = system: S. aureus, E. faecalis, E. faecium, S. pyogenes, S. epidermidis and S. pneumoniae; assay: Bactericidal activity
Procedure: as §1

[3] = MIC against drug-resistant Gram-positive strains; details: read-out: MIC in clinically relevant resistant strains
Procedure: as §1
(§2) Compounds of the present invention were not compromised by existing resistance to all drug classes tested, including β-lactams, glycopeptides, oxazolidinones, macrolides, and fluoroquinolones. In particular, compounds described in Examples 11, 54, 60, and 208 were active against methicillin-(oxacillin-) resistant S. aureus (MRSA), vancomycin-intermediate S. aureus (VISA), linezolid-resistant S. aureus, methicillin-(oxacillin-) resistant and mupirocin resistant S. epidermidis, macrolide-resistant S. pyogenes, macrolide-, penicillin-, and levofloxacin-resistant S. pneumoniae, vancomycin-, macrolide-, and ciprofloxacin-resistant E. faecalis (VRE) and vancomycin-, macrolide-, and ciprofloxacin-resistant E. faecium.

[4] = system: MRSA, VISA, linezolid-resistant S. aureus, resistant S. epidermidis, S. pyogenes, S. pneumoniae, E. faecalis (VRE) and E. faecium; assay: MIC against drug-resistant Gram-positive strains; details: MRSA, VISA, linezolid-resistant S. aureus, resistant S. epidermidis, S. pyogenes, S. pneumoniae, E. faecalis (VRE), E. faecium
Procedure: as §1, §2

| Compound | MIC90 [1] | bactericidal [2] | MIC [3] | activity against drug-resistant strains [4] |
| --- | --- | --- | --- | --- |
| Cc1ncnc(C)c1C(=O)N(C)Cc1csc(NC(=O)NCc2cccc(F)c2)n1 [Example 96, N-((2-(3-(3-fluorobenzyl)ureido)thiazol-4-yl)methyl)-N,4,6-trimethylpyrimidine-5-carboxamide] | 1 to 4 µg/mL (≈ 2.33 to 9.34 µM) |  |  |  |
| CCc1noc(C)c1C(=O)N(C)Cc1csc(NC(=O)NCc2cccc(F)c2)n1 [Example 60, 3-ethyl-N-((2-(3-(3-fluorobenzyl)ureido)thiazol-4-yl)methyl)-N,5-dimethylisoxazole-4-carboxamide] | 1 to 4 µg/mL (≈ 2.32 to 9.27 µM) | bactericidal | 0.25 to 4 µg/mL (≈ 0.579 to 9.27 µM) | active |
| Cc1noc(C)c1C(=O)N(C)Cc1csc(NC(=O)NCc2ccc(Cl)c(Cl)c2)n1 [Example 11, N-((2-(3-(3,4-dichlorobenzyl)ureido)thiazol-4-yl)methyl)-N,3,5-trimethylisoxazole-4-carboxamide] |  | bactericidal | 0.25 to 4 µg/mL (≈ 0.534 to 8.54 µM) | active |
| Cc1noc(C)c1C(=O)N(C)C(C#N)c1csc(NC(=O)NCc2cccc(F)c2)n1 (stereo not drawn) [Example 214, 3,5-Dimethyl-isoxazole-4-carboxylic acid (cyano-{2-[3-(3-fluoro-benzyl)-ureido]-thiazol-4-yl}-methyl)-methyl-amide] | 1 to 4 µg/mL (≈ 2.26 to 9.04 µM) |  |  |  |
| Cc1noc(C)c1C(=O)N(C)Cc1csc(NC(=O)NCc2cccc(F)c2)n1 [Example 54, N-((2-(3-(3-fluorobenzyl)ureido)thiazol-4-yl)methyl)-N,3,5-trimethylisoxazole-4-carboxamide] | 1 to 4 µg/mL (≈ 2.4 to 9.58 µM) | bactericidal | 0.25 to 4 µg/mL (≈ 0.599 to 9.58 µM) | active |
| Cc1noc(C)c1C(=O)N(C)Cc1csc(NC(=O)NCc2ccc(Cl)s2)n1 [Example 107, N-((2-(3-((5-chlorothiophen-2-yl)methyl)ureido)thiazol-4-yl)methyl)-N,3,5-trimethylisoxazole-4-carboxamide] | 1 to 4 µg/mL (≈ 2.27 to 9.09 µM) |  |  |  |
| CN(Cc1csc(NC(=O)NCc2cccc(F)c2)n1)C(=O)c1cc(O)nnc1Cl [Example 208, 3-Chloro-6-hydroxy-pyridazine-4-carboxylic acid {2-[3-(3-fluoro-benzyl)-ureido]-thiazol-4-ylmethyl}-methyl-amide] | 1 to 4 µg/mL (≈ 2.22 to 8.87 µM) | bactericidal | 0.25 to 4 µg/mL (≈ 0.554 to 8.87 µM) | active |
